Source: patent US8946426B2, “Substituted bicyclic heterocyclic compounds as gamma secretase modulators” (Janssen Pharmaceuticals, Inc., priority 2009, dated 2015)
pIC50: −log10 of the molar value.

Assays:
[1] = tested on: Notch-processing activity of the γ-secretase-complex; experiment: Notch cell-free assay (NICD production from recombinant Notch substrate N99); format: biochemical; settings: 1 μM test compound; 0.3-0.5 μM mouse Notch substrate; enriched gamma secretase; 37° C., 6 to 22 h; western blot; control GSI concentration not given
Procedure: The Notch transmembrane domain is cleaved by gamma secretase to release Notch Intracellular C-terminal Domain (NICD).
To monitor the effect of compounds on NICD production, a recombinant Notch substrate (N99) was prepared. The Notch substrate, comprised of mouse Notch fragment (V1711-E1809), an N-terminal methionine and a C-terminal FLAG sequence ([…]), was expressed in E. coli and purified on a column containing an anti-FLAG M2 affinity matrix.
A typical Notch cell-free assay consisted of 0.3-0.5 μM Notch substrate, an enriched preparation of gamma secretase and 1 μM of a test compound (compounds 16, 18 and 106 of the present invention). Controls included a gamma secretase inhibitor (GSI), such as (2S)—N-[2-(3,5-difluorophenyl)acetyl]-L-alanyl-2-phenyl-glycine 1,1-dimethylethyl ester (DAPT) or (2S)-2-hydroxy-3-methyl-N-[(1S)-1-methyl-2-oxo-2-[[(1S)-2,3,4,5-tetrahydro-3-methyl-2-oxo-1H-3-benzazepin-1-yl]amino]ethyl]-butanamide (Semagacestat), and DMSO, the final concentration of DMSO being 1%. Recombinant Notch substrate was pre-treated with 17 μM DTT (1,4-dithiothreitol) and 0.02% SDS (Sodium Dodecyl Sulfate) and heated at 65° C. for 10 min. The mixture of substrate, gamma secretase and compound/DMSO was incubated at 37° C. for 6 to 22 hours (h). Six-hour incubation was sufficient to produce the maximal amount of NICD and the cleaved product remained stable for an additional 16 H. Reaction products were processed for SDS PAGE (Sodium Dodecyl Sulfate-Poly Acrylamide Gel Electrophoresis) and western blotting. Blots were probed with an anti-Flag M2 antibody, followed by LI-COR infrared secondary antibody, and analyzed with the Odyssey Infrared Imaging System (LI-COR® Biosciences).

[2] = tested on: mouse Notch2; experiment: Notch cell-based assay (N2-CHO/DL-CHO co-culture, Dual-Glo luciferase, NICD production); settings: Mus musculus; N2-CHO/DL-CHO co-culture 16 H; five-point curve 3 μM-0.3 nM; read-out: average IC50 values from the Notch cell-based assay (luciferase assay readouts)
Description: The Notch cell-based assay was based on the interaction of Notch and its ligand in a co-culture system and utilized the Dual-Glo Luciferase Assay System (Promega) to monitor NICD production. Two stable cell lines, N2-CHO and DL-CHO, were established to express full-length mouse Notch2 and Delta respectively. Cells that expressed mouse Notch were also transfected with two plasmids, pTP1-Luc and pCMV-RLuc, to express firefly and Renilla luciferase. Expression of firefly luciferase was under the control of TP1 promoter that responded to NICD activation.
N2-CHO cells were seeded at 1×10^5/well in 24-well plates the day before transfection. On the second day, cells were double transfected with 3 μg/well pTP1-Luc (expressing firefly luciferase) and 0.3 ng/well pCMV-RLuc (expressing Renilla luciferase). After 6 H incubation, transfected N2-CHO cells were washed and DL-CHO cells (2×10^5 cells/well) were added.
Compounds were pre-mixed with DL-CHO cell suspension in a five-point curve. Typically, compound treatment was performed in duplicate with a serial 1:10 dilution (3 μM-0.3 nM) in DMSO. The final concentration of DMSO in a given culture was 1%. Controls included non-transfected cells and transfected cells treated with a GSI or DMSO only. Luciferase assays were performed after 16 H co-culture and compound treatment.
The luciferase assay was carried out according to manufacture's instructions. Briefly, cells were washed with PBS (Phosphate Buffered Saline), lysed with Passive Lysis Buffer (Promega), and incubated at room temperature for 20 min. Lysates were mixed with Dual-Glo Luciferase Reagent and the firefly luciferase activity was measured by reading the luminescence signal in the EnVision 2101 Multilabel reader. Dual-Glo Stop & Glo Reagent was then added to each well and the Renilla luciferase signal was measured.

[3] = tested on: Aβtotal; experiment: Method 1: Aβtotal sandwich ELISA in supernatant of SKNBE2 cells carrying APP 695-wild type (Tables 7a, 7b); format: cell-based
Procedure, shortened: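 SKNBE2 cells expressing wild-type APP695 were exposed to compound for 18 Hours in Ultraculture with 1% glutamine. Aβtotal in the supernatant was read by 6E10-capture/biotinylated 4G8 sandwich ELISA with a fluorogenic peroxidase read-out, and WST-1 checked toxicity. IC50 came from a 4-parameter fit of percent inhibition or percent of control versus concentration.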

[4] = tested on: Aβtotal; experiment: Method 2: Aβtotal Alphalisa in supernatant of SKNBE2 cells carrying APP 695-wild type (Table 7c); format: cell-based; settings: Method 2, Alphalisa, overnight incubation
Procedure, shortened: (§1)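 SKNBE2 cells expressing wild-type APP695 incubated overnight at 37° C with test compound, 10^4 cells/well. Supernatant Aβ42 (C-terminal JRF/cAβ42/26 with N-terminal JRF/AβN/25) and Aβtotal (JRF/AβN/25 with 4G8) quantified by AlphaLISA. IC50 from 4-parameter fit of percent of untreated control.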

[5] = tested on: Aβ42; experiment: Method 1: Aβ42 sandwich ELISA in supernatant of SKNBE2 cells carrying APP 695-wild type (Tables 7a, 7b); format: cell-based
Procedure, shortened: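 SKNBE2 cells expressing wild-type APP695 were exposed to compound for 18 hours. Secreted Aβ42 was quantified by sandwich ELISA with C-terminal-selective capture, biotinylated 3D6 detection and TMB read-out at 450 nm. IC50 came from 4-parameter fits of % inhibition or % of untreated control; WST-1 monitored toxicity.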

[6] = tested on: Aβ42; experiment: Method 2: Aβ42 Alphalisa in supernatant of SKNBE2 cells carrying APP 695-wild type (Table 7c); format: cell-based; settings: Method 2, Alphalisa, overnight incubation
Procedure, shortened: as §1

[7] = tested on: Aβtotal; experiment: In vivo efficacy: Aβtotal lowering in brain after single oral dose (Table 8); settings: mouse brain soluble fraction, ELISA, compared to untreated animals
Description: (§2) To determine whether acute administration of an Aβ42 lowering agent would reduce Aβ42 levels in vivo, non-transgenic rodents, e.g. mice or rats were used. Alternatively, two to three month old Tg2576 mice expressing APP695 containing the “Swedish” variant can be used or a transgenic mouse model developed by Dr. Fred Van Leuven (K.U.Leuven, Belgium) and co-workers, with neuron-specific expression of a clinical mutant of the human amyloid precursor protein [V7171] (Moechars et al., 1999 J. Biol. Chem. 274, 6483). Young transgenic mice have high levels of Aβ in the brain but no detectable Aβ deposition. At approximately 6-8 months of age, the transgenic mice start to display spontaneous, progressive accumulation of β-amyloid (Aβ) in the brain, eventually resulting in amyloid plaques within the subiculum, hippocampus and cortex. Animals treated with the Aβ42 lowering agent were examined and compared to those untreated or treated with vehicle and brain levels of soluble Aβ42 and total Aβ would be quantitated by standard techniques, for example, using ELISA. Treatment periods varied from hours to days and were adjusted based on the results of the Aβ42 lowering once a time course of onset of effect could be established.
(§3) A typical protocol for measuring Aβ42 lowering in vivo is shown but it is only one of many variations that could be used to optimize the levels of detectable Aβ. For example, Aβ42 lowering compounds were formulated in 20% of Captisol® (a sulfobutyl ether of β-cyclodextrin) in water or 20% hydroxypropyl β cyclodextrin. The Aβ42 lowering agents were administered as a single oral dose or by any acceptable route of administration to overnight fasted animals. After four hours, the animals were sacrificed and Aβ42 levels were analysed.
(§4) Blood was collected by decapitation and exsanguinations in EDTA-treated collection tubes. Blood was centrifuged at 1900 g for 10 min at 4° C. and the plasma recovered and flash frozen for later analysis. The brain was removed from the cranium and hindbrain. The cerebellum was removed and the left and right hemisphere were separated. The left hemisphere was stored at −18° C. for quantitative analysis of test compound levels. The right hemisphere was rinsed with phosphate-buffered saline (PBS) buffer and immediately frozen on dry ice and stored at −80° C. until homogenization for biochemical assays.
(§5) Mouse brains were resuspended in 10 volumes of 0.4% DEA (diethylamine)/50 mM NaCl pH 10 (for non-transgenic animals) or 0.1% 3-[(3-cholamidopropyl)-dimethyl-ammonio]-1-propanesulfonate (CHAPS) in tris buffered saline (TBS) (for transgenic animals) containing protease inhibitors (Roche-11873580001 or 04693159000 per gram of tissue, e.g. for 0.158 g brain, add 1.58 ml of 0.4% DEA. All samples were sonicated for 30 sec on ice at 20% power output (pulse mode). Homogenates were centrifuged at 221.300×g for 50 min. The resulting high speed supernatants were then transferred to fresh tubes and were optionally further purified before the next step. A portion of the supernatant was neutralized with 10% 0.5 M Tris-HCl and this was used to quantify Aβtotal.
(§6) The obtained supernatants were purified with Water Oasis HLB reverse phase columns (Waters Corp., Milford, Mass.) to remove non-specific immunoreactive material from the brain lysates prior subsequent Aβ detection. Using a vacuum manifold, all solutions were passed through the columns at a rate of approximately 1 ml per minute, so the vacuum pressure was adjusted accordingly throughout the procedure. Columns were preconditioned with 1 ml of 100% MeOH, before equilibration with 1 ml of H2O. Non-neutralized brain lysates were loaded onto the columns. The loaded samples were then washed twice with the first wash performed with 1 ml of 5% MeOH, and the second wash with 1 ml of 30% MeOH. Finally, the Aβ was eluted from the columns and into 100×30 mm glass tubes, with a solution of 90% MeOH with 2% NH4OH. […]

[8] = tested on: Aβ42; experiment: In vivo efficacy: Aβ42 lowering in brain after single oral dose (Table 8); settings: mouse brain soluble fraction, ELISA, compared to untreated animals
Description: as §2, §3, §4, §5, §6

[9] = Table 7b, averaged IC50, non-linear regression of percentage of control vs log concentration, 4-parameter equation
[10] = Homo sapiens, SKNBE2, Table 7b, averaged IC50, non-linear regression of percentage of control vs log concentration, 4-parameter equation
[11] = Homo sapiens, Table 7a, SKNBE2 cells, compounds 18 h, XLfit 4-parameter fit of percent inhibition, top/bottom fixed to 100/0, hill slope 1

Row | pIC50 [2] | pIC50 [3, 10] | pIC50 [5, 10] | melting point [°C] | pIC50 [3, 11] | pIC50 [5, 11] | SMILES | effect on the Notch-processing activity of the γ-secretase-complex (production of NICD) [1] | Aβtotal (% Ctrl)_Mean [7] [% Ctrl] | Aβ42 (% Ctrl)_Mean [8] [% Ctrl] | also measured
1 |  | < 5.52 | 6.98 | 204.9 | < 5.52 | 6.96 | COc1cc(Nc2nccc3c2nc(-c2ccc(F)cc2)n3C)ccc1-c1cnc(C)o1 [Compound 14] |  | 91 | 78 | 
2 |  | < 5.52 | 7.20 | 157.6 | < 5.52 | 7.19 | COc1cc(Nc2cccc3c2nc(-c2ccc(F)cc2)n3C)ccc1-c1cnn(C)c1 [Compound 13] |  | 105 | 87 | 

Further lines, the compound ahead of its results:

Row | SMILES | pIC50 [2] | pIC50 [3, 10] | pIC50 [5, 10] | melting point [°C] | pIC50 [3, 11] | pIC50 [5, 11] | effect on the Notch-processing activity of the γ-secretase-complex (production of NICD) [1] | Aβtotal (% Ctrl)_Mean [7] [% Ctrl] | Aβ42 (% Ctrl)_Mean [8] [% Ctrl] | also measured
3 | C[C@H](NC(=O)Cc1cc(F)cc(F)c1)C(=O)NC(C(=O)OC(C)(C)C)c1ccccc1 (stereo partly drawn) [DAPT, (2S)—N-[2-(3,5-difluorophenyl)acetyl]-L-alanyl-2-phenyl-glycine 1,1-dimethylethyl ester, reference compound] | 7.35 |  |  |  |  |  | blocked |  |  | 
4 | Cc1ncc(-c2ccc(Nc3cc(F)cc4c3nc(-c3ccc(F)cc3)n4C)cn2)o1 [Compound 106] |  |  |  |  |  |  | did not show an effect |  |  | pIC50 [3, 9]: < 6.00; pIC50 [4]: < 5.00; pIC50 [5, 9]: 8.00; pIC50 [6]: 7.62
5 | COC(=O)c1cc(Nc2ccc(-c3ocnc3C)c(OC)c2)c2nc(CC(C)C)cn2c1 [Compound 162] |  | < 5.00 | 7.60 | 157.1 |  |  |  |  |  | pIC50 ([4]; Homo sapiens): < 5.00; pIC50 ([6]; Homo sapiens): 7.49
6 | CC(C)[C@H](O)C(=O)N[C@@H](C)C(=O)N[C@@H]1C(=O)N(C)CCc2ccccc21 [Semagacestat, (2S)-2-hydroxy-3-methyl-N-[(1S)-1-methyl-2-oxo-2-[[(1S)-2,3,4,5-tetrahydro-3-methyl-2-oxo-1H-3-benzazepin-1-yl]amino]ethyl]-butanamide, reference compound] | 7.40 |  |  |  |  |  | blocked |  |  | 
